Target: T1, VEGFR2 (Homo sapiens, UniProt P35968)
T1 construct: coding for the cytoplasmic domain, beginning with lysine 791 and including the termination codon; made in house; host or cells: Sf9 insect cells (baculovirus, pFastBacHis)
Experiment: Inhibition against VEGFR2 kinase (receptor tyrosine kinase activity, HTRF method)
Format: biochemical
Conditions: His6-VEGFR2 cytoplasmic domain, biotin-poly(GT) substrate, ATP, 30° C. 10 minutes, read-out: IC50 (concentration required for 50% inhibition of VEGFR2 kinase activity)
Source text: Measurement of Inhibition Against Receptor Tyrosine Kinase Activity
This assay is used to determine inhibition of a test substance on tyrosine kinase activity. DNA coding for the cytoplasmic domain of VEGFR2 is obtained by total cDNA synthesis (Edwards M, International Biotechnology Lab 5(3), 19–25, 1987) or by cloning. Expression in an appropriate expression system can produce a polypeptide with tyrosine kinase activity. […] For VEGFR2 (Genbank Accession No. L04947), the 1.7 kb DNA fragment described by Terman et al. (Oncogene, 6(9), 1677–1683, 1991), coding for the cytoplasmic domain, beginning with lysine 791 and including the termination codon, was isolated from a human placental cDNA library (purchased from Clontech Laboratories, Inc.) and cloned in a Baculovirus expression vector (pFastBacHis, purchased from GIBCO BRL) The recombinant construct was transfected into insect cells (Spondoptea frugiperda9 (Sf9)) to prepare a recombinant Baculovirus. (Instructions for preparation and use of recombinant Baculovirus maybe found in standard texts, such as “Bac-To-Bac Baculovirus Expression System” (GIBCO BRL).) The cytoplasmic fragment starting from lysine 398 (FGFR1, Genbank Accession No. X52833), the cytoplasmic fragment starting from lysine 558 (PDGFRβ, Genbank Accession No. M21616) or the cytoplasmic fragment starting from lysine 974 (HGFR, Genbank Accession No. J02958) may be cloned and expressed by the same method for use in assays for other tyrosine kinases. EGFR was purchased from Sigma Co. (Product No. E-2645).
For expression of the VEGFR2 tyrosine kinase, Sf9 cells were infected with the VEGFR2 recombinant virus and collected after 48 hours. The collected cells were rinsed with ice-cooled phosphate buffered saline (PBS) and then resuspended using 20 ml of ice-cooled Lysis Buffer (50 mM Tris-HCl (pH 8.5), 5 mM 2-mercaptoethanol, 100 mM KCl, 1 mM phenylmethylsulfonyl fluoride, 1% (v/v) NP-40) per 1.5×10^8 cells. The suspension was centrifuged at 12,000 rpm for 30 minutes at 4° C. and the supernatant was obtained.
The supernatant was added to a Ni—NTA agarose column (3 ml, purchased from Qiagen) equilibrated with Buffer A {20 mM Tris-HCl (pH 8.5), 5 mM 2-mercaptoethanol, 500 mM KCl, 20 mM imidazole, 10% (v/v) glycerol}. The column was washed with 30 ml of Buffer A, and then with 6 ml of Buffer B {20 mM Tris-HCl (pH 8.5), 5 mM 2-mercaptoethanol, 1M KCl, 10% (v/v) glycerol}, and finally with 6 ml of Buffer A. After washing, it was eluted with 6 ml of Buffer C {20 mM Tris-HCl (pH8.5), 5mM2-mercaptoethanol, 100 mMKCl, 100 mM imidazole, 10% (v/v) glycerol}. The eluate was placed on a dialysis membrane (purchased from Spectrum Laboratories) and dialyzed with a dialysis buffer {20 mM Tris-HCl (pH 7.5), 10% (v/v) glycerol, 1 mM dithiothreitol, 0.1 mM Na3VO4, 0.1 mM EGTA}. After dialysis, it was supplied for SDS-electrophoresis, and the recombinant protein (His6-VEGFR2, cytoplasmic domain of VEGFR2 fused with 6 histidine residues at the N-terminus) detected at a molecular weight of approximately 100 kDa with Coumassie Brilliant Blue staining was assayed using BSA (bovine serum albumin, purchased from Sigma Co.) as the standard substance, and stored at −80° C. until use. Using the same method for the cytoplasmic domains of FGFR1, PDGFRβ and HGFR yielded respective recombinant proteins fused with 6 histidine residues at the N-termini (His6-FGFR1, His6-PDGFRβ or His6-HGFR).
The tyrosine kinase reaction was conducted as follows. […]

T1 sequence (P35968 786-1356 limits assumed): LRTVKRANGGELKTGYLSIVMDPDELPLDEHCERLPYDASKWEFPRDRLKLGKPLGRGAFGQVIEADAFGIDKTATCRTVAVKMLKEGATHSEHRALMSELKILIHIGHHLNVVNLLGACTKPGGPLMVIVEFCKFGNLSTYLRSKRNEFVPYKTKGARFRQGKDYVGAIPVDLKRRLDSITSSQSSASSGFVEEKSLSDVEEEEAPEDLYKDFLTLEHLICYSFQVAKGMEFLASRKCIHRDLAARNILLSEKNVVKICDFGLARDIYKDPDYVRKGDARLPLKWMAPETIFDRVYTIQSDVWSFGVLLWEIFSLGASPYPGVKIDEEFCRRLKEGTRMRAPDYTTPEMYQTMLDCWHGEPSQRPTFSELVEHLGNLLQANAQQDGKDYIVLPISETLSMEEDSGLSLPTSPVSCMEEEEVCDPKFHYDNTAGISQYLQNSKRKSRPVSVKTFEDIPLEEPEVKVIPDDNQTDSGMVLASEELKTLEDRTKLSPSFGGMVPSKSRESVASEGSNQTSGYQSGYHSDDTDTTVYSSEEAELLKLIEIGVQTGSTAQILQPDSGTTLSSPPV

SMILES	IC50 [nM]
COCCOc1cc2nccc(Oc3ccc(NC(=O)Nc4cccc(S(C)(=O)=O)c4)c(F)c3)c2cc1C#N [Example 34, N-(4-(6-Cyano-7-(2-methoxyethoxy)-4-quinolyl)oxy-2-fluorophenyl)-N′-(3-(methylsulfonyl)phenyl)urea]	3.4
CCOC(=O)/C=C/c1c(Oc2ccc(NC(=O)Nc3ccc(F)cc3)cc2)ccnc1NC(=O)C1CC1 [Example 184, Ethyl(E)-3-[2-[(cyclopropylcarbonyl)amino]-4-(4-{[(4-fluoroanilino)carbonyl]amino}phenoxy)-3-pyridyl]-2-propenoate]	59
COCCOc1cc2nccc(Oc3ccc(NC(=O)Nc4ccc(F)cc4)cc3)c2cc1C#N [Example 10, N-(4-(6-cyano-7-(2-methoxyethoxy)-4-quinolyl)oxyphenyl)-N′-(4-fluorophenyl)urea]	4.9
N#Cc1cc2c(Oc3ccc(NC(=O)Nc4ccc(F)cc4F)c(F)c3)ccnc2cc1OCCN1CCOCC1 [Example 54, N-(4-(6-Cyano-7-(2-(4-morpholino)ethoxy)-4-quinolyl)oxy-2-fluorophenyl)-N′-(2,4-difluorophenyl)urea]	15
CCN(CC)CCCOc1cc2nccc(Oc3ccc(NC(=O)Nc4ccc(F)cc4)cc3)c2cc1C#N [Example 30, N-(4-(6-Cyano-7-(3-(diethylamino)propoxy)-4-quinolyloxy)phenyl)-N′-(4-fluorophenyl)urea]	22
COCCOc1cc2nccc(Oc3ccc(NC(=O)Nc4ccccc4)c(F)c3)c2cc1C#N [Example 99, N-(4-(6-Cyano-7-(2-methoxyethoxy)-4-quinolyl)oxy-2-fluorophenyl)-N′-phenylurea]	8.6
COc1cc2nccc(Oc3ccc(NC(=O)Nc4ccccc4)cc3)c2cc1C#N [Example 37, N-[4-(6-cyano-7-methoxyquinolin-4-yloxy)phenyl]-N′-phenylurea]	22
O=C(Nc1ccc(Oc2ncnc3[nH]c(-c4ccccc4)cc23)cc1)NC1CC1 [Example 173, 1-Cyclopropyl-3-[4-(6-phenyl-7H-pyrrolo[2,3-d]pyrimidin-4-yloxy)phenyl]urea]	356
O=C(Nc1ccc(Oc2ccnc(NC(=O)C3CC3)c2)cc1Cl)NC1CC1 [Example 208]	9.2
COCCOc1cc2nccc(Oc3ccc(NC(=O)Nc4cccc(O)c4)cc3)c2cc1C#N [Example 15, N-(4-(6-Cyano-7-(2-methoxyethoxy)-4-quinolyl)oxyphenyl)-N′-(3-hydroxyphenyl)urea]	8.7
COCCOc1cc2nccc(Oc3ccc(NC(=O)Nc4cccc(SC)c4)c(F)c3)c2cc1C#N [Example 33, N-(4-(6-Cyano-7-(2-methoxyethoxy)-4-quinolyl)oxy-2-fluorophenyl)-N′-(3-(methylsulfanyl)phenyl)urea]	6.9
CCNC(=O)n1ccc2cc(Oc3ncnc4[nH]c(-c5ccc(O)cc5)cc34)ccc21 [Example 178, 5-[6-(4-Hydroxyphenyl)-7H-pyrrolo[2,3-d]pyrimidin-4-yloxy]indole-1-carboxylic ethylamide]	12
O=C1CCc2c(Oc3ccc(NC(=O)Nc4ccc(F)cc4)cc3)ccnc2N1 [Example 182, N-(4-Fluorophenyl)-N′-{4-[(7-oxo-5,6,7,8-tetrahydro[1,8]naphthyridin-4-yl)oxy]phenyl}urea]	71

Other lines, results leading:

IC50 [nM]	SMILES
16	NC(=O)c1cc2c(Oc3ccc(NC(=O)NC4CC4)c(F)c3)ccnc2cc1OCCN1CCOCC1 [Example 375, 4-(4-(Cyclopropylaminocarbonyl)amino-3-fluorophenoxy)-7-(2-(4-morpholino)ethoxy)-6-quinolinecarboxamide]
31	COCCOc1cc2nccc(Sc3ccc(NC(=O)Nc4nccs4)s3)c2cc1C#N [Example 252, 1-{5-[6-Cyano-7-(2-methoxyethoxy)-quinolin-4-ylsulfanyl]-thiophen-2-yl}-3-(thiazol-2-yl)urea]
9.5	COCCOc1cc2nccc(Oc3ccc(NC(=O)NC4CC4)c(Cl)c3)c2cc1C#N [Example 262]
8.1	COCCOc1cc2nccc(Oc3ccc(NC(=O)NCCF)c(F)c3)c2cc1C(N)=O [Example 364, 4-(4-(3-Fluoro(2-fluoroethylamino)carbonyl)aminophenoxy)-7-(2-methoxyethoxy)-6-quinolinecarboxamide]
15	CN1CCC(COc2cc3nccc(Oc4ccc(NC(=O)NC5CC5)c(Cl)c4)c3cc2C(N)=O)CC1 [Example 394, 4-(3-Chloro-4-(cyclopropylaminocarbonyl)aminophenoxy)-7-((1-methyl-4-piperidyl)methoxy)-6-quinolinecarboxamide]
11	COCCOc1cc2nccc(Sc3ccc(NC(=O)Nc4cccc(C#N)c4)s3)c2cc1C#N [Example 260, 1-{5-[6-Cyano-7-(2-methoxyethoxy)quinolin-4-ylsulfanyl]-thiophen-2-yl}-3-(3-cyanophenyl)-urea]
5.4	COCCOc1cc2nccc(Oc3ccc(NC(=O)NCCCF)c(F)c3)c2cc1C(N)=O [Example 365]
2.2	COc1cc2nccc(Oc3ccc(NC(=O)NCCCSC)c(F)c3)c2cc1C(N)=O [Example 353, 4-(3-Fluoro-4-((3-methylthiopropylamino)carbonyl)aminophenoxy)-7-methoxy-6-quinolinecarboxamide]
2.2	COc1cc2nccc(Oc3ccc(NC(=O)NC4CC4)c(Cl)c3)c2cc1C(=O)NCCO [Example 410, N6-(2-Hydroxyethyl)-4-(3-chloro-4-(((cyclopropylamino)carbonyl)amino)phenoxy)-7-methoxy-6-quinolinecarboxamide]
16	COCCOc1cc2nccc(Sc3ccc(NC(=O)Nc4ccc(C)cc4)s3)c2cc1C#N [Example 259, 1-{5-[6-Cyano-7-(2-methoxyethoxy)quinolin-4-ylsulfanyl]thiophen-2-yl}-3-(para-tolyl)urea]
2.2	COc1cc2nccc(Oc3ccc(NC(=O)NC4CC4)c(Cl)c3)c2cc1C(=O)NCC(N)=O [Example 449, N6-(2-Amino-2-oxoethyl)-4-(3-chloro-4-(((cyclopropylamino)carbonyl)amino)phenoxy)-7-methoxy-6-quinolinecarboxamide]
43	COc1cc2nccc(Oc3ccc(N(C)C(=O)NC4CC4)cc3)c2cc1C(N)=O [Example 350, 4-(4-(Cyclopropylaminocarbonyl)-4-methylaminophenoxy)-7-methoxy-6-quinolinecarboxamide]
3.2	COc1cc2nccc(Oc3ccc(NC(=O)NC4CC4)c(Cl)c3)c2cc1C(=O)NCC1OCCO1 [Example 413, N6-(1,3-Dioxolan-2-ylmethyl)-4-(3-chloro-4-(((cyclopropylamino)carbonyl)amino)phenoxy)-7-methoxy-6-quinolinecarboxamide]
4.1	NC(=O)c1cc2c(Oc3ccc(NC(=O)NC4CC4)c(Cl)c3)ccnc2cc1OCCCO [Example 387, 4-(3-Chloro-4-(cyclopropylaminocarbonyl)aminophenoxy)-7-(3-hydroxypropoxy)-6-quinolinecarboxamide]
14	CC(=O)Nc1cc(Oc2ccc(NC(=O)Nc3cccc(S(C)(=O)=O)c3)cc2)ncn1 [Example 556, N-(6-(4-(3-(3-Methylsulfonylphenyl)ureido)phenoxy)pyrimidin-4-yl)acetamide]
13	O=C(Nc1ccc(F)cc1)Nc1ccc(Oc2ccnc(NC(=O)c3cccnc3)c2)cc1 [Example 465, N-[4-(2-Nicotinoylaminopyridin-4-yl)oxyphenyl]-N′-(4-fluorophenyl)urea]

Reference: patent US7253286B2, “Nitrogen-containing aromatic derivatives” (Eisai Co., Ltd, priority 2000, dated 2007)
